One assay concerns HEK-Blue IL23 Reporter. The experiment in a line: HEK-Blue IL-23 STAT3 Reporter Assay. The format is cell-based, human. The conditions noted are these: HEK-Blue IL23 cells stimulated with IL-23 overnight; SEAP read with QUANTI-Blue at OD655. As to the method: HEK-Blue IL23 cells (InvivoGen catalog #HKB-IL23) are designed for the detection of bioactive IL-23 by monitoring the activation of the STAT3 pathway. They were generated by stably introducing the genes for the human IL-23 receptor, STAT3, and the SEAP (secreted embryonic alkaline phosphatase) reporter gene into human HEK293 cell line.
Briefly, around 50,000 cells in DMEM medium supplemented with 10% heat inactivated FBS (˜180 ul) were seeded into each well and incubate for 48 hours at 37° C. with 5% CO2 in air. On day 3, one microliter of compound and 20 ul IL-23 were transferred to the assay plate respectively. The plate was left in the 37° C. incubator overnight. Two microliter of cell supernatant was transferred to a 384-well plate, and 18 ul of resuspended QUANTI-Blue solution was added to each well. SLAP levels were determined using Tecan Spark at OD655.
Cells with no IL23 added were used as Low control. Cells stimulated with IL23 were used as High control. Inhibition rate was calculated with the formula of % inhibition=100*(High control−Treated Well)/(High Control−Low control). IL-23 reporter assay inhibition IC50 was calculated with the equation of Y=Bottom+(Top-Bottom)/(1+10^((Log IC50−X)*HillSlope)).
(In general: A reporter such as luciferase makes a cellular process visible.)
With `[2H]C([2H])([2H])NC(=O)c1nnc(NC(=O)[C@H]2CC23CC3)cc1Nc1nccc2c1S(C)(=O)=NC2` (some centres unmarked) [Compound 129], 0.4 nM corresponded to half-maximal inhibition (IC50).

With `[2H]C([2H])([2H])NC(=O)c1nnc(NC(=O)[C@H]2CC23CC3)cc1Nc1nccc2c1S(C)(=O)=NC2` (some centres unmarked) [Compound 130], it took 59.9 nM to reach half-maximal inhibition (IC50).

Staying with this assay, now noted: Homo sapiens, HEK-Blue IL-23, HEK-Blue IL23 cells stimulated with IL-23 overnight; SEAP read with QUANTI-Blue at OD655.
On to `[2H]C([2H])([2H])NC(=O)c1nnc(NC(=O)[C@H]2CC23CC3)cc1Nc1ncc(SC(F)(F)F)cc1S(C)(=O)=O` [Compound 99], for which it took 15.6 nM to reach half-maximal inhibition (IC50).

In the case of `[2H]C([2H])([2H])NC(=O)c1nnc(NC(=O)[C@H]2CC23CC3)cc1Nc1nc(C)c(OC)cc1S(C)(=O)=O` [Compound 100], the IC50 (usually the concentration at which inhibition is half-maximal) is 2.1 nM.

Turning to `[2H]C([2H])([2H])NC(=O)c1nnc(NC(=O)[C@H]2CC23CC3)cc1Nc1nccc(C2CC2)c1S(C)(=O)=O` [Compound 101], the IC50 worked out at 11.5 nM.

In the case of `[2H]C([2H])([2H])NC(=O)c1nnc(NC(=O)[C@H]2CC23CC3)cc1Nc1ncc(Cl)cc1S(C)(=O)=O` [Compound 102], the midpoint of inhibition, the IC50, lay at 3.7 nM.

As to `[2H]C([2H])([2H])NC(=O)c1nnc(NC(=O)[C@H]2CC23CC3)cc1Nc1nscc1S(C)(=O)=O` [Compound 103], the IC50 was 5.7 nM.

Take `[2H]C([2H])([2H])CC(=O)c1nnc(NC(=O)[C@H]2CC23CC3)cc1Nc1ncc(OC)cc1S(C)(=O)=O` [Compound 104]: the midpoint of inhibition, the IC50, lay at 119 nM.

With `[2H]C([2H])([2H])NC(=O)c1nnc(NC(=O)[C@H]2CC23CC3)cc1Nc1ncc(C(F)F)cc1S(C)(=O)=O` [Compound 105], the IC50 was found to be 6.7 nM.

`[2H]C([2H])([2H])NC(=O)c1nnc(NC(=O)[C@H]2CC23CC3)cc1Nc1ncc(OC(F)F)cc1S(C)(=O)=O` [Compound 106] had an IC50 of 3.6 nM.

For the compound `[2H]C([2H])([2H])NC(=O)c1nnc(NC(=O)[C@H]2CC23CC3)cc1Nc1ncc(OCCOC)cc1S(C)(=O)=O` [Compound 107], the IC50 was 0.8 nM.

In the case of `[2H]C([2H])([2H])NC(=O)c1nnc(NC(=O)[C@H]2CC23CC3)cc1Nc1ncc(OCCN(C)C)cc1S(C)(=O)=O` [Compound 108], inhibition was half-maximal at 19.5 nM (IC50).

With `[2H]C([2H])([2H])NC(=O)c1nnc(NC(=O)[C@H]2CC23CC3)cc1Nc1ncc(C2(F)COC2)cc1S(C)(=O)=O` [Compound 109], the IC50 is 284 nM.

In turn, `[2H]C([2H])([2H])NC(=O)c1nnc(NC(=O)[C@H]2CC23CC3)cc1Nc1ncc(OC2COC2)cc1S(C)(=O)=O` [Compound 110] registered an IC50 of 2.7 nM.

In the case of `[2H]C([2H])([2H])NC(=O)c1nnc(NC(=O)[C@H]2CC23CC3)cc1Nc1ncc(OCC(C)(C)O)cc1S(C)(=O)=O` [Compound 111], it took 7.5 nM to reach half-maximal inhibition (IC50).

With `[2H]C([2H])([2H])NC(=O)c1nnc(NC(=O)[C@H]2CC23CC3)cc1Nc1ncc(OC[C@H](C)OC)cc1S(C)(=O)=O` [Compound 112], the IC50 was 2.7 nM.

For the compound `[2H]C([2H])([2H])NC(=O)c1nnc(NC(=O)[C@H]2CC23CC3)cc1Nc1ncc(OC[C@@H](C)OC)cc1S(C)(=O)=O` [Compound 113], 1.2 nM corresponded to half-maximal inhibition (IC50).

On to `[2H]C([2H])([2H])NC(=O)c1nnc(NC(=O)[C@H]2CC23CC3)cc1Nc1ncc(O[C@@H](C)COC)cc1S(C)(=O)=O` [Compound 114], for which the IC50 turned out to be 1 nM.

Turning to `[2H]C([2H])([2H])NC(=O)c1nnc(NC(=O)[C@H]2CC23CC3)cc1Nc1ncc(O[C@H](C)COC)cc1S(C)(=O)=O` [Compound 115], the IC50 is 3.5 nM.

In turn, `[2H]C([2H])([2H])NC(=O)c1nnc(NC(=O)[C@@H]2CC23CC3)cc1Nc1ncc(OCCOC(F)F)cc1S(C)(=O)=O` [Compound 116] displayed an IC50 of 3 nM.

`[2H]C([2H])([2H])NC(=O)c1nnc(NC(=O)[C@@H]2CC23CC3)cc1Nc1ncc(OCCOC=O)cc1S(C)(=O)=O` [Compound 117] yielded an IC50 of 5.7 nM.

The compound `[2H]C([2H])([2H])NC(=O)c1cnc(NC(=O)[C@@H]2CC23CC3)cc1Nc1ncc(C2CC2)cc1S(C)(=O)=O` [Compound 118] had an IC50 of 0.6 nM.

Regarding `[2H]C([2H])([2H])NC(=O)c1cnc(NC(=O)[C@H]2CC23CC3)cc1Nc1ncc(Cl)cc1S(C)(=O)=O` [Compound 119], the IC50 was found to be 6.2 nM.

`[2H]C([2H])([2H])NC(=O)c1nnc(NC(=O)[C@H]2CC23CC3)cc1Nc1ncc(C(C)(C)O)cc1S(C)(=O)=O` [Compound 120]: the midpoint of inhibition, the IC50, lay at 14.7 nM.

As for `[2H]C([2H])([2H])NC(=O)c1nnc(NC(=O)[C@H]2CC23CC3)cc1Nc1ncc(N2CCOC[C@H]2C)cc1S(C)(=O)=O` [Compound 121], the IC50 stood at 1.2 nM.

With `[2H]C([2H])([2H])NC(=O)c1nnc(NC(=O)[C@H]2CC23CC3)cc1Nc1ncc(N2CCOC[C@@H]2C)cc1S(C)(=O)=O` [Compound 122], the IC50 was found to be 16.1 nM.

Compound `[2H]C([2H])([2H])NC(=O)c1nnc(NC(=O)[C@H]2CC23CC3)cc1Nc1nc(C2CC2)sc1S(C)(=O)=O` [Compound 123] registered an IC50 of 19.8 nM.

For the compound `[2H]C([2H])([2H])NC(=O)c1nnc(NC(=O)[C@H]2CC23CC3)cc1Nc1ncc(N2CC(F)(F)C2)cc1S(C)(=O)=O` [Compound 124], the IC50 is 1.9 nM.

Turning to `[2H]C([2H])([2H])NC(=O)c1nnc(NC(=O)[C@H]2CC23CC3)cc1Nc1nc(C)c(F)cc1S(C)(=O)=O` [Compound 125], half-maximal inhibition (IC50) required 7.3 nM.

`[2H]C([2H])([2H])NC(=O)c1nnc(NC(=O)[C@H]2CC23CC3)cc1Nc1ncc(C#N)cc1S(C)(=O)=O` [Compound 126] returned an IC50 of 17.4 nM.

The compound `[2H]C([2H])([2H])NC(=O)c1nnc(NC(=O)[C@H]2CC23CC3)cc1Nc1nc(C)sc1S(C)(=O)=O` [Compound 127] came in with an IC50 of 6.4 nM.

With `[2H]C([2H])([2H])NC(=O)c1nnc(NC(=O)[C@H]2CC23CC3)cc1Nc1ncc(N2CC(F)C2)cc1S(C)(=O)=O` [Compound 128], it took 1 nM to reach half-maximal inhibition (IC50).

`[2H]C([2H])([2H])NC(=O)c1nnc(NC(=O)C2CC2)cc1Nc1ncc(C(C)(C)O)cc1S(C)(=O)=O` [Compound 131] had an IC50 of 9 nM.

`[2H]C([2H])([2H])NC(=O)c1nnc(NC(=O)[C@H]2CC23CC3)cc1Nc1ncc(OC(F)(F)F)cc1S(C)(=O)=O` [Compound 132] showed an IC50 of 6.5 nM.

`[2H]C([2H])([2H])NC(=O)c1nnc(NC(=O)[C@H]2CC23CC3)cc1Nc1ncc(N2CCC2)cc1S(C)(=O)=O` [Compound 133]: inhibition was half-maximal at 1.2 nM (IC50).

Source of the values: patent US12492184B2, “Heteroaryl compounds, preparation methods and uses thereof” (InventisBio Co., Ltd., priority 2020, dated 2025).
